Where two headings read alike, the source gives them in different places.
Columns and labels:
[1] = tested on: Escherichia Coli; conditions: micromolar concentrations; gram negative (E. Coli); illuminated in light box; cited from earlier work
[2] = tested on: Staphylococcus Aureus; conditions: micromolar concentrations; gram positive (Staph aureus); illuminated in light box; cited from earlier work
[3] = tested on: P. gingivalis ATCC 33277; experiment: Lethal photosensitization of P. Gingivalis, colony count; assay type: cell-based, Porphyromonas Gingivalis
Method: • Suitable stain dosages for providing lethal sensitization of oral pathogens are determined in vitro by the following procedure. An objective is to determine the minimum duration of light exposure and minimum agent dilution required to achieve at least a 50% reduction in bacteria counts. Experimental tests are performed on two common pathogens using a continuously working, high intensity, red filtered halogen lamp. Red light from the filtered halogen lamp is transmitted through a flexible light guide to radiate downwardly onto petri dishes containing samples of live bacteria of species Porphyromonas Gingivalis and Prevotella Intermedia using the protocols described below. • Bacteria. Prevoltella Intermedia is isolated from patient sample material, identified in the laboratory using standard diagnostic test systems (Remel Inc., Lenexa, Kans., USA) and is maintained by twice-weekly subculture in thioglycollate medium (Becton Dickinson and Co, Sparks, Md., USA). P. gingivalis ATCC 33277 obtained from Remel Inc., is maintained by a twice-weekly subculture on CDC anaerobe blood agar (Becton Dickinson and Co, USA) and in thioglycollate medium (Becton Dickinson and Co, USA). • Light Source. […] The light output power density measured at 3 cm distance from the end of the light guide with filter is about 50 milliwatts/cm2. • Photosensitizer. […]

[4] = tested on: Porphyromonas Gingivalis and Prevotella Intermedia; conditions: for bactericidal effect without light exposure: methylene blue 0.075% and 0.1%, no red halogen light
[5] = tested on: Candida albicans; conditions: methylene blue 450 and 500 microgram/mL; diode laser 664 nm, 275 J/cm fiber length, 400 mW, 687.5 seconds; immunosuppressed murine model; cited from earlier work

Compound	bacterial cell death by phototoxicity [1]	bacterial cell death by phototoxicity [2]	bacterial killing without light exposure ([3]; methylene blue 0.01%, without light exposure, P.gingivalis culture)	bactericidal effect on P.gingivalis ([3]; methylene blue 0.1%)	killing with duration of red-filtered light exposure ([4]; 1, 5 and 10 min with methylene blue 0.05%, 5 and 10 min with methylene blue 0.025%)	reduction in bacteria counts ([4]; light 5 min with methylene blue 0.025%, light 1 min with methylene blue 0.05% and higher)	killing of bacteria without halogen light ([4]; methylene blue 0.001% or 0.025%, without halogen light)	bactericidal effect in combination with red-filtered high-intensity light ([4]; methylene blue 0.01% or higher, exposure less than 10 minutes, accumulated energy 30 J/cm^2, both species)	survival rate (bacterial colony count) ([4]; methylene blue 0.05% and higher, red light exposure 10 or 20 minutes)	reduction of bacteria, methylene blue alone ([4]; methylene blue 0.05%, without exposure to light)	bactericidal effect without light exposure [4]	bactericidal effect without light exposure ([4]; listed as Methylene blue)	eradication of Candida albicans [5]
Cc1cc2nc3ccc(N(C)C)cc3[s+]c2cc1N.[Cl-] [toluidine blue O]	bacterial cell death	bacterial cell death	–	–	–	–	–	–	–	–	–	–	–
CN(C)c1ccc2nc3ccc(=[N+](C)C)cc-3sc2c1 [methylene blue]	bacterial cell death	bacterial cell death	statistically significant bacterial killing	bactericidal effect	statistically significant increased killing with duration	Significant reduction in bacteria counts	nor concentrations of methylene blue of 0.001% or 0.025%, without halogen light, appeared to be effective in killing bacteria	bactericidal effect	≤ 50%	insignificant	significantly bactericidal	significant bactericidal effect	totally eradicate
